Calls of active or inactive are those of the source.
Columns and labels:
Nonstructural protein 1 = Nonstructural protein 1 (Influenza A virus, UniProt Q194T2); type: functional, Influenza A virus (A/California/07/2009(H1N1))
[1] = target: T1, Polyadenylate-binding protein 1 (Homo sapiens, UniProt P11940); test: MLLE domain peptide-binding blockers, IC50 – biochemical, fluorescence polarization, FITC-PAM2 peptide, dose response (AID 602259); type: functional; details: read-out: IC50_Mean
[2] = target: T1, Polyadenylate-binding protein 1; test: MLLE binding blockers, Cy5 peptide tracer – biochemical, fluorescence polarization, Cy5-PAM2 peptide, secondary, miRNA deadenylation inhibitor project, dose response (AID 602260); type: functional; details: read-out: IC50_Mean
[3] = target: T2, Mannose-6-phosphate isomerase (Homo sapiens, UniProt P34949); test: MPI inhibition at elevated mannose 6-phosphate – biochemical, fluorescence intensity, high mannose 6-phosphate, primary screen (AID 1220)
T2 sequence (P34949 whole entry): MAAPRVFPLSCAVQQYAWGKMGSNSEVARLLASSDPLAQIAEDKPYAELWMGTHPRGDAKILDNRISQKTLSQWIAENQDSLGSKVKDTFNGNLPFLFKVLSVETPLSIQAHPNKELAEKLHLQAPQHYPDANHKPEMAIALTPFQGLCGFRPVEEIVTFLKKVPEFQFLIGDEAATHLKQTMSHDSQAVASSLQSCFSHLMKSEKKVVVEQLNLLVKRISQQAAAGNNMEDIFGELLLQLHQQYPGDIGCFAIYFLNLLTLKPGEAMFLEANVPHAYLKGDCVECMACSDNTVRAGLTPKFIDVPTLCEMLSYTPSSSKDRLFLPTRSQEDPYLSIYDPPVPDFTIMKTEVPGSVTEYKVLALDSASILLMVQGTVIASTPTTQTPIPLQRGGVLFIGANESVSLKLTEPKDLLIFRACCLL

Vero [4] = test: inhibition of WNV-induced cytopathic effect – cell-based, CPE readout (AID 1621); type: functional; details: Chlorocebus sabaeus
[5] = target: Glyceraldehyde-3-phosphate dehydrogenase (Homo sapiens, UniProt P04406)
Chain of Glyceraldehyde-3-phosphate dehydrogenase (P04406 whole entry): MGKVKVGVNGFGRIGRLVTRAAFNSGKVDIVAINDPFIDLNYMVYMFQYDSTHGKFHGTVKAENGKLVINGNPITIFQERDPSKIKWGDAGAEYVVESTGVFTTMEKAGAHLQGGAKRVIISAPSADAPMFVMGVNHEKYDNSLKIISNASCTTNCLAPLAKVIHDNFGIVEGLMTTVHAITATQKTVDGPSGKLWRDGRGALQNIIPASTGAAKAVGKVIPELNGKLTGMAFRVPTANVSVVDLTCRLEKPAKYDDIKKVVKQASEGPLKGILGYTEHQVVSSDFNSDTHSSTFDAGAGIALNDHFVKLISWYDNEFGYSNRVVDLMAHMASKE

Estrogen receptor = target: T3, Estrogen receptor (Homo sapiens, UniProt P03372);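 also: potency for inhibiting coactivator peptide recruitment to the receptor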
T3 sequence (P03372 whole entry): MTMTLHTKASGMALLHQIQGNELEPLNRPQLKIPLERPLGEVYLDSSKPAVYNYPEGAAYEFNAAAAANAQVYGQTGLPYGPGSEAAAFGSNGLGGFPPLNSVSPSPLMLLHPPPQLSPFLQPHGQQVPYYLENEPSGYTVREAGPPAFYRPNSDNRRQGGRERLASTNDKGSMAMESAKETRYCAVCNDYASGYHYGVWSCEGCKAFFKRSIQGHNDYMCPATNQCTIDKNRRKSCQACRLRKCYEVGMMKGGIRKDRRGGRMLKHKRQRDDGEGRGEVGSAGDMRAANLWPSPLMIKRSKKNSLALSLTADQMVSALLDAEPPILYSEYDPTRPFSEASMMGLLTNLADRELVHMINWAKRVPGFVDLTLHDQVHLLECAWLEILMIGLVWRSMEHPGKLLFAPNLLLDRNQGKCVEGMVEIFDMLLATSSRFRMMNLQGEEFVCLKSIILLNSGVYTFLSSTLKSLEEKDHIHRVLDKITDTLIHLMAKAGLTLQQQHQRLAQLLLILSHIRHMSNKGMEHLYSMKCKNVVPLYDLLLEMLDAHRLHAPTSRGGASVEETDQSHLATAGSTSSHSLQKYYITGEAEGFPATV

[6] = target: T4, Carboxy-terminal domain RNA polymerase II polypeptide A small phosphatase 1 (Homo sapiens, UniProt Q9GZU7); test: CTDSP1 inhibitors, concentration-response, biochemical, absorbance readout, ultra-high-throughput screen actives (AID 540297); type: functional
T4 sequence (Q9GZU7 whole entry): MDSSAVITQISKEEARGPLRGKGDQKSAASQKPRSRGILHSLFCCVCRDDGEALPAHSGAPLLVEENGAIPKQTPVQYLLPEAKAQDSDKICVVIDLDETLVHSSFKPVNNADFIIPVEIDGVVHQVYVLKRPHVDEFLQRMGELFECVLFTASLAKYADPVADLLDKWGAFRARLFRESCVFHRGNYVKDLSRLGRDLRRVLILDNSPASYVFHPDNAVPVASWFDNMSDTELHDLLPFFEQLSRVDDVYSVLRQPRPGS

[7] = target: Serine/threonine-protein phosphatase PP1-alpha catalytic subunit (Homo sapiens, UniProt P62136); test: inhibition of protein phosphatase 1 activity – biochemical, fluorescence, dose response (AID 2403);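 also: phosphatase turnover of OMFP into fluorescent 3-O-methylfluorescein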
Chain of Serine/threonine-protein phosphatase PP1-alpha catalytic subunit (P62136 whole entry): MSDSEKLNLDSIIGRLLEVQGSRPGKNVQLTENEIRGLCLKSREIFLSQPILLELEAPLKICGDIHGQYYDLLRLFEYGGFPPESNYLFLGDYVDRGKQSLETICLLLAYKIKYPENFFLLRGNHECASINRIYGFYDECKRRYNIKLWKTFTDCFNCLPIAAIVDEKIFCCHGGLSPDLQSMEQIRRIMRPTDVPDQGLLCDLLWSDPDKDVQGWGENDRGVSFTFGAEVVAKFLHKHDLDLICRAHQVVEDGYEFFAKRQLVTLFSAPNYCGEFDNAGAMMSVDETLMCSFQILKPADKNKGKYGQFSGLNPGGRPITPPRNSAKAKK

Streptococcus = test: GAS UMAA2166 growth inhibition – luminescence, BacTiterGlo, counter-screen for streptokinase expression inhibitor project, dose response (AID 1915); type: functional, organism-based;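 also: potency for reduction of bacterial viability or growth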
Galanin receptor type 3 = target: T5, Galanin receptor type 3 (Homo sapiens, UniProt O60755); test: Fluorescence-based cell-based primary high throughput dose response assay to identify antagonists of the Galanin Receptor 3 (GalR3).; type: functional
T5 sequence (O60755 whole entry): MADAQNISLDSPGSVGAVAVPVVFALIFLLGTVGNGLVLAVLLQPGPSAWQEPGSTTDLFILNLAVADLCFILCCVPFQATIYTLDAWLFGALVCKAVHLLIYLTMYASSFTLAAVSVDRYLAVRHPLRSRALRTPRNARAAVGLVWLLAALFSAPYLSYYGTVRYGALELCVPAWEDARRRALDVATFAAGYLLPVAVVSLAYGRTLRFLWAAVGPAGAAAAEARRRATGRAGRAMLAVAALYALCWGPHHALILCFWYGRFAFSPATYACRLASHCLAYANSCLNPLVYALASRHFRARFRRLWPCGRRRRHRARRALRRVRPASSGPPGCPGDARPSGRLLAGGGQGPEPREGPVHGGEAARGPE

[8] = Trypanosoma cruzi growth suppression in host cells – NIH3T3 host cells, beta-gal luminescence, confirmation (AID 2044); type: functional, cell-based;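 also: intracellular parasites grown in NIH/3T3 mouse fibroblasts as host cells; luminescent beta-galactosidase reporter signal from transgenic T. cruzi replicating inside host cells; inhibitors lower the luminescence signal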
[9] = target: Serine/threonine-protein phosphatase (Homo sapiens, UniProt Q9BPW0); test: Counterscreen for inhibitors of PP1: fluorescence-based biochemical high throughput dose response assay to identify inhibitors of Protein Phosphatase 5 (PP5). [Related pubchem assays: 2034 (Summary (PP5 inhibitors)), 1987 (PP5 inhibitors in singlate), 2235 (PP1 inhibitors in singlate)]
Chain of Serine/threonine-protein phosphatase (Q9BPW0 whole entry): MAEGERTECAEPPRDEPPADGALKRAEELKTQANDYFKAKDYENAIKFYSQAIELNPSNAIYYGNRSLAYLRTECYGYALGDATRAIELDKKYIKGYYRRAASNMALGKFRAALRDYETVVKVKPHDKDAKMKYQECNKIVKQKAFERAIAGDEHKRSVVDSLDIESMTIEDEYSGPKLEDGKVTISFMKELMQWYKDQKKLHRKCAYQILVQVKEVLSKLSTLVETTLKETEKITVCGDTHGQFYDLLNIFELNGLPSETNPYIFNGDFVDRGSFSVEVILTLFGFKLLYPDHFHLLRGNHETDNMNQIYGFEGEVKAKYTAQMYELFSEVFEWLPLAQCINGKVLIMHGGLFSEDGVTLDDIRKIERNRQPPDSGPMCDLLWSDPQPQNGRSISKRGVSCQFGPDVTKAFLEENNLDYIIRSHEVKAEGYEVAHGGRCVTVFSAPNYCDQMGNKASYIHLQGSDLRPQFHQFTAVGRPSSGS

[10] = target: T6, COUP transcription factor 2 (Homo sapiens, UniProt P24468); test: Luminescence-based cell-based high throughput dose response assay to identify inhibitors of COUP-TFII (NR2F2).; type: functional;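 also: HEK293 cells transiently cotransfected with COUP-TFII expression vector and reporter; luciferase reporter luminescence driven by COUP-TFII from the pX2-168 reporter plasmid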
T6 sequence (P24468 whole entry): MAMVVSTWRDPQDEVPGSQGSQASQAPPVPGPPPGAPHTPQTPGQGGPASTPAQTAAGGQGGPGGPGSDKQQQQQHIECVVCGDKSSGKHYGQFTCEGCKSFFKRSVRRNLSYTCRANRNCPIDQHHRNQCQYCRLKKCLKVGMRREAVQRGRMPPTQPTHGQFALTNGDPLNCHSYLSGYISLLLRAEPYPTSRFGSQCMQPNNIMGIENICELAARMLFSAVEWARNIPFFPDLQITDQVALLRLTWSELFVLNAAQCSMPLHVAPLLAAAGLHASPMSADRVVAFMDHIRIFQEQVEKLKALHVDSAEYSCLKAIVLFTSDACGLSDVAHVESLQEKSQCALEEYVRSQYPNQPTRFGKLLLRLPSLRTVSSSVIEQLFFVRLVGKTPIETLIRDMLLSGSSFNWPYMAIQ

[11] = blockers of HIV-1 envelope-mediated cell-cell fusion – cherry-pick, dose response (AID 652057); type: functional, cell-based
[12] = loss of viability in HepG2 cells – cell-based, CellTiter-Glo, cherry-picked, cytotoxicity control for Shn3 inhibitor project, dose response (AID 624134); type: functional
[13] = viability loss in CEM21 cells – cell-based, CellTiter-Glo luminescence, cherry-picked, cytotoxicity control for viral fusion inhibitor project, dose response (AID 652042); type: functional;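 also: potency for signal decrease meaning cytotoxicity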
[14] = NIH3T3 cell viability loss – ATP luminescence, mouse fibroblasts, counter-screen, dose response (AID 2010); type: functional, cell-based;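 also: cells exposed to compound for about 90 hours before reading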
[15] = HIV-1 AD8 envelope cell-cell fusion blockers – cherry-pick, dose response (AID 652062); type: functional, cell-based;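 also: luciferase signal from cell-cell fusion driven by HIV-1 clade B AD8 Env; potency is for inhibitors of fusion seen as a drop in luminescence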
[16] = reduction of Shn3 3'UTR-driven luciferase in osteoblasts – cell-based, Clone20 osteoblasts, firefly luciferase, cherry-picked, dose response (AID 624132); type: functional;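 also: firefly luciferase luminescence from reporter carrying the Shn3 3'UTR in osteoblasts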
[17] = tested on: Streptococcus sp. 'group A'; test: Streptococcus pyogenes SK(-)GAS viability under kanamycin – luminescence, BacTiterGlo, confirmation, counter-screen for streptokinase expression inhibitor project, dose response (AID 1900); type: functional, organism-based
cells = type: functional, cell-based; details: HEK-CNG
[18] = non-specific 3'UTR reporter inhibition in Clone20-Shn3RL – cell-based, Renilla luciferase, cherry-picked, counter-screen for Shn3 inhibitor project, dose response (AID 624133); type: functional
[19] = target: Sphingosine 1-phosphate receptor 2 (Homo sapiens, UniProt O95136); test: Dose Response Cell Based Assay for Antagonists of the S1P2 Receptor. [Related pubchem assays: 856, 736 ]; type: functional
Chain of Sphingosine 1-phosphate receptor 2 (O95136 whole entry, the tested form may be a part): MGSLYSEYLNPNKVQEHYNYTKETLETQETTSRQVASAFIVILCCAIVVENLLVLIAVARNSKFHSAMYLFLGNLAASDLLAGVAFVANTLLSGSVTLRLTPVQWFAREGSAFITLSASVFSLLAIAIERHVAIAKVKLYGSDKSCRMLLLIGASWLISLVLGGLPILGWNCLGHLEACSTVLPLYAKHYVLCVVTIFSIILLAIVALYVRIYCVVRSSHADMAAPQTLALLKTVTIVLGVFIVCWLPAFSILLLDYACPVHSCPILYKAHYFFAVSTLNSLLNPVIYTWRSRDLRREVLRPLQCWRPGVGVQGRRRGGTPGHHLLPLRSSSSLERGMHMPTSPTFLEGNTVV

[20] = blockers of HIV-1 ZM109 envelope-driven cell-cell fusion – HeLa effector, CEM target cells, luciferase, cherry-pick, dose response (AID 652058); type: functional, cell-based;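 also: luciferase signal from HIV-1 Env mediated cell-cell fusion of effector and target cells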
Vero [21] = test: cells; type: functional; details: Chlorocebus sabaeus
[22] = off-target signal loss in HeLa-CEM21 co-culture – HeLa F-luc CTL cells, cherry-picked, counter-screen for HIV-1 Env fusion inhibitor project, dose response (AID 652040); type: functional, cell-based;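 also: potency for signal decrease marking cytotoxic or nonspecific inhibition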

T1 sequence (P11940 whole entry, the tested form may be a part): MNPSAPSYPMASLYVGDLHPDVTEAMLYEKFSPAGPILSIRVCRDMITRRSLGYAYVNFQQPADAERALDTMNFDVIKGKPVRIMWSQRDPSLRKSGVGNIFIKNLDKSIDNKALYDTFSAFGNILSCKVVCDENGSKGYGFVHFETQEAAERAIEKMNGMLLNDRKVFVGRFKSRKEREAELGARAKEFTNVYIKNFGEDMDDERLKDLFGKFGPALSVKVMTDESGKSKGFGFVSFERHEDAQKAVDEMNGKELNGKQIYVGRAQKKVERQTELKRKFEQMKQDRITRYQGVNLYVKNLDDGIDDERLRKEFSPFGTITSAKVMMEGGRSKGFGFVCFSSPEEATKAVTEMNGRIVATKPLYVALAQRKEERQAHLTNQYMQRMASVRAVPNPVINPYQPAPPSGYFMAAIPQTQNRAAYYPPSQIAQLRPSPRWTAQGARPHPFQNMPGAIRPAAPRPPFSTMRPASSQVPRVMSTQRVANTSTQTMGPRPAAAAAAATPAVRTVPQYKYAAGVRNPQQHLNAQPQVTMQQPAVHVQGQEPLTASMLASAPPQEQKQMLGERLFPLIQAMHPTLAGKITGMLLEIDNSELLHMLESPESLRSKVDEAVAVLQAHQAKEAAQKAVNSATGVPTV
Chain of Nonstructural protein 1 (Q194T2 whole entry, the tested form may be a part): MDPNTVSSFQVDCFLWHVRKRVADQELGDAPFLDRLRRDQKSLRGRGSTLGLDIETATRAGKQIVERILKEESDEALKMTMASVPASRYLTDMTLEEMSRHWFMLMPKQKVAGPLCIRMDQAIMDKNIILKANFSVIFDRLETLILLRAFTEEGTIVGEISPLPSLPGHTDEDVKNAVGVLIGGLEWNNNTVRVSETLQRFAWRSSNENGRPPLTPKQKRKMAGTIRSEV

O=C(O)CNC(=O)CC1SC(NN=C2CSC(=O)N2)=NC1=O (stereo not drawn)
IC50 (Nonstructural protein 1): 7.74 µM (active) | IC50 [1]: > 66 µM (inactive) | IC50 [2]: > 66 µM (inactive) | IC50 [3]: 46.3 µM (active)

Cc1ccc(C)c(CN2C(=O)c3ccccc3[S+]([O-])c3ccc(C(=O)NCCCN4CCCC4)cc32)c1 (stereo not drawn)
IC50 (Vero [4]): 22 µM (active)

CCN1CCN(C2=C(Cl)C(=O)N(c3ccc(C)cc3)C2=O)CC1
IC50 [5]: > 50 µM (inconclusive)

Cc1sc2ncnc(SCC(=O)NC(=O)NCc3ccco3)c2c1C
IC50 (Estrogen receptor): 11.5 µM (active) | IC50 [6]: 10.6 µM (active)

CCCCc1c(C)nc2ccc(Br)cc2c1SC(N)N
IC50 [3]: > 50 µM (not active)

CCOC(=O)c1cnc(-n2nc(C)cc2C)nc1NC1CCCCC1
IC50 [7]: 6.65 µM (active) | EC50 (Streptococcus): 2.5 µM (active) | IC50 (Galanin receptor type 3): > 29.9 µM (inactive) | EC50 [8]: 1.2 µM (active) | IC50 [9]: > 67 µM (not active) | IC50 [10]: 7.02 µM (active) | AC50 [11]: 35.5 µM (active) | AC50 [12]: 4.48 µM (active) | AC50 [13]: 18.1 µM (active) | EC50 [14]: 12.8 µM (active) | AC50 [15]: 33.4 µM (active) | AC50 [16]: 3.01 µM (active) | EC50 [17]: 1.82 µM (active) | EC50 (cells): 14.5 µM (inactive) | AC50 [18]: 3.29 µM (active) | IC50 [19]: 4.39 µM (active) | AC50 [20]: 21.3 µM (active) | CC50 (Vero [21]): 11.5 µM (active) | AC50 [22]: 27.1 µM (active)

— ChEMBL document CHEMBL1201862, “PubChem BioAssay data set” (2004)
